Measured values: patent publication US20090137626A1, “Pharmaceutical Composition Containing PPARgamma Agonist” (priority 2005, published 2009)
Where a name gives a salt, the structure may show the parent alone.

Test system: Male Zucker diabetic fatty (ZDF) rats
Assay: Test Example 1: elimination of blood lactate after intravenous sodium lactate load (blood lactate AUC 0 to 60 minutes)
Type: in vivo
Settings: sodium lactate 0.1 g/kg i.v., FIG. 1
Protocol: The animals of Group B and Group B+A were given free access for 1 week to Compound B mixed in powdered feed (FR-2 Powdered Laboratory Rodent Diet, Funabashi Farm Co., Ltd.) to a concentration of 0.001%. Animals of the control group and Group A were given free access to powdered feed for the same time period.
All animals were administered sodium lactate at 0.1 g/kg into the caudal vein one hour after oral administration. Blood samples were collected from the caudal vein immediately before and 5, 15, 30, 45 and 60 minutes after administration of sodium lactate, and blood lactate levels were measured using the Lactate Pro LT-1710 (Arkray, Inc.). The areas under the curve for blood lactate concentration (blood lactate AUC) were calculated from blood lactate levels from 0 to 60 minutes measured for each animal. A lower blood lactate AUC value indicates a more rapid elimination of lactate from the blood.

COc1ccc2nc(COc3ccc(CC4SC(=O)NC4=O)cc3)n(C)c2c1 (centres unmarked) [Compound B, 5-{4-[(6-methoxy-1-methyl-1H-benzimidazol-2-yl)methoxy]benzyl}thiazolidine-2,4-dione hydrochloride]
blood lactate AUC (Group B+A: Compound B 0.001% in feed for 1 week, then Compound A 300 mg/kg oral, relative to Group A (P<0.05, t-test)): decreased significantly
blood lactate AUC (Group B: Compound B 0.001% in powdered feed for 1 week, alone, compared with control group (P<0.05, t-test)): decreased significantly
